The supplement of paper PMC10307832

Experiments:
Assay in all cases: relative viability (nuclei count vs DMSO), 5 days (fraction); higher = more cells survive
A-427 = test system: A-427
Outline: (§1)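 Relative viability equals treated-well nuclei counts divided by vehicle-well nuclei counts. Counts came from 4× images of lung cancer cell lines grown in 1536-well plates for 5 days after pin-tool dosing on the day after seeding. Dosing used one drug alone or a fixed anchor-drug dose plus five library-drug doses (not always all listed) in √10 steps, and values are medians of duplicate plates.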

ChaGo-K-1 = test system: ChaGo-K-1
Outline: as §1

EKVX = test system: EKVX
Outline: as §1

H3255 = test system: H3255
Outline: as §1

NCI-H1355 = test system: NCI-H1355
Outline: as §1

NCI-H1650 = test system: NCI-H1650
Outline: as §1

NCI-H1666 = test system: NCI-H1666
Outline: as §1

NCI-H1755 = test system: NCI-H1755
Outline: as §1

NCI-H2085 = test system: NCI-H2085
Outline: as §1

NCI-H2228 = test system: NCI-H2228
Outline: as §1

NCI-H2347 = test system: NCI-H2347
Outline: as §1

NCI-H3122 = test system: NCI-H3122
Outline: as §1

NCI-H322M = test system: NCI-H322M
Outline: as §1

NCI-H441 = test system: NCI-H441
Outline: as §1

NCI-H460 = test system: NCI-H460
Outline: as §1

NCI-H520 = test system: NCI-H520
Outline: as §1

NCI-H596 = test system: NCI-H596
Outline: as §1

NCI-H650 = test system: NCI-H650
Outline: as §1

NCI-H838 = test system: NCI-H838
Outline: as §1

SW 1573 = test system: SW 1573
Outline: as §1

Structure (SMILES): O=C(O)CCCCC(CCSCc1ccccc1)SCc1ccccc1 (centres undefined) [CPI-613] + CC(C)C[C@H](NC(=O)[C@H](Cc1ccccc1)NC(=O)c1cnccn1)B(O)O [Bortezomib] (partner 0.002 µM)
- relative viability (A-427; first compound 5 µM): 0.939
- relative viability (A-427; first compound 15.81 µM): 0.901
- relative viability (A-427; first compound 50 µM): 0.96
- relative viability (A-427; first compound 158.11 µM): 0.761
- relative viability (A-427; first compound 500 µM): 0.253
- relative viability (ChaGo-K-1; first compound 5 µM): 0.836
- relative viability (ChaGo-K-1; first compound 15.81 µM): 0.855
- relative viability (ChaGo-K-1; first compound 50 µM): 0.804
- relative viability (ChaGo-K-1; first compound 158.11 µM): 0.671
- relative viability (ChaGo-K-1; first compound 500 µM): 0.554
- relative viability (EKVX; first compound 5 µM): 0.864
- relative viability (EKVX; first compound 15.81 µM): 0.957
- relative viability (EKVX; first compound 50 µM): 1.05
- relative viability (EKVX; first compound 158.11 µM): 0.548
- relative viability (EKVX; first compound 500 µM): 1.04
- relative viability (H3255; first compound 5 µM): 0.815
- relative viability (H3255; first compound 15.81 µM): 0.719
- relative viability (H3255; first compound 50 µM): 0.781
- relative viability (H3255; first compound 158.11 µM): 0.734
- relative viability (H3255; first compound 500 µM): 0.736
- relative viability (NCI-H1355; first compound 5 µM): 1.2
- relative viability (NCI-H1355; first compound 15.81 µM): 1.22
- relative viability (NCI-H1355; first compound 50 µM): 1.23
- relative viability (NCI-H1355; first compound 158.11 µM): 0.646
- relative viability (NCI-H1355; first compound 500 µM): 0.611
- relative viability (NCI-H1650; first compound 5 µM): 0.196
- relative viability (NCI-H1650; first compound 15.81 µM): 0.204
- relative viability (NCI-H1650; first compound 50 µM): 0.187
- relative viability (NCI-H1650; first compound 158.11 µM): 0.0869
- relative viability (NCI-H1650; first compound 500 µM): 0.0195
- relative viability (NCI-H1666; first compound 5 µM): 0.883
- relative viability (NCI-H1666; first compound 15.81 µM): 0.603
- relative viability (NCI-H1666; first compound 50 µM): 0.757
- relative viability (NCI-H1666; first compound 158.11 µM): 0.175
- relative viability (NCI-H1666; first compound 500 µM): 0.0891
- relative viability (NCI-H1755; first compound 5 µM): 0.959
- relative viability (NCI-H1755; first compound 15.81 µM): 0.945
- relative viability (NCI-H1755; first compound 50 µM): 0.875
- relative viability (NCI-H1755; first compound 158.11 µM): 0.707
- relative viability (NCI-H1755; first compound 500 µM): 0.114
- relative viability (NCI-H2085; first compound 5 µM): 0.984
- relative viability (NCI-H2085; first compound 15.81 µM): 0.847
- relative viability (NCI-H2085; first compound 50 µM): 0.995
- relative viability (NCI-H2085; first compound 158.11 µM): 0.873
- relative viability (NCI-H2085; first compound 500 µM): 0.194
- relative viability (NCI-H2228; first compound 5 µM): 0.918
- relative viability (NCI-H2228; first compound 15.81 µM): 1.04
- relative viability (NCI-H2228; first compound 50 µM): 1.07
- relative viability (NCI-H2228; first compound 158.11 µM): 0.217
- relative viability (NCI-H2228; first compound 500 µM): 0.0287
- relative viability (NCI-H2347; first compound 5 µM): 0.606
- relative viability (NCI-H2347; first compound 15.81 µM): 0.833
- relative viability (NCI-H2347; first compound 50 µM): 1.2
- relative viability (NCI-H2347; first compound 500 µM): 1
- relative viability (NCI-H3122; first compound 5 µM): 0.973
- relative viability (NCI-H3122; first compound 15.81 µM): 1.04
- relative viability (NCI-H3122; first compound 50 µM): 1.01
- relative viability (NCI-H3122; first compound 158.11 µM): 0.939
- relative viability (NCI-H3122; first compound 500 µM): 0.281
- relative viability (NCI-H322M; first compound 5 µM): 1.19
- relative viability (NCI-H322M; first compound 15.81 µM): 1.2
- relative viability (NCI-H322M; first compound 50 µM): 1.27
- relative viability (NCI-H322M; first compound 158.11 µM): 1.31
- relative viability (NCI-H322M; first compound 500 µM): 0.908
- relative viability (NCI-H441; first compound 5 µM): 0.447
- relative viability (NCI-H441; first compound 15.81 µM): 0.44
- relative viability (NCI-H441; first compound 50 µM): 0.537
- relative viability (NCI-H441; first compound 158.11 µM): 0.129
- relative viability (NCI-H441; first compound 500 µM): 0.005
- relative viability (NCI-H460; first compound 5 µM): 1.07
- relative viability (NCI-H460; first compound 15.81 µM): 1.12
- relative viability (NCI-H460; first compound 50 µM): 0.895
- relative viability (NCI-H460; first compound 158.11 µM): 0.445
- relative viability (NCI-H460; first compound 500 µM): 0.0063
- relative viability (NCI-H520; first compound 5 µM): 0.756
- relative viability (NCI-H520; first compound 15.81 µM): 0.421
- relative viability (NCI-H520; first compound 50 µM): 0.858
- relative viability (NCI-H520; first compound 158.11 µM): 0.169
- relative viability (NCI-H520; first compound 500 µM): 0.0871
- relative viability (NCI-H596; first compound 5 µM): 0.972
- relative viability (NCI-H596; first compound 15.81 µM): 0.934
- relative viability (NCI-H596; first compound 50 µM): 1
- relative viability (NCI-H596; first compound 158.11 µM): 0.779
- relative viability (NCI-H596; first compound 500 µM): 0.208
- relative viability (NCI-H650; first compound 5 µM): 0.828
- relative viability (NCI-H650; first compound 15.81 µM): 0.617
- relative viability (NCI-H650; first compound 50 µM): 0.92
- relative viability (NCI-H650; first compound 158.11 µM): 0.689
- relative viability (NCI-H650; first compound 500 µM): 0.452
- relative viability (NCI-H838; first compound 5 µM): 0.867
- relative viability (NCI-H838; first compound 15.81 µM): 0.702
- relative viability (NCI-H838; first compound 50 µM): 1.02
- relative viability (NCI-H838; first compound 158.11 µM): 0.425
- relative viability (NCI-H838; first compound 500 µM): 0.0658
- relative viability (SW 1573; first compound 5 µM): 0.951
- relative viability (SW 1573; first compound 15.81 µM): 0.985
- relative viability (SW 1573; first compound 50 µM): 0.979
- relative viability (SW 1573; first compound 158.11 µM): 0.884
- relative viability (SW 1573; first compound 500 µM): 0.802
